Some test systems named below: MALME-3M melanoma; HCT-116 colon; MDA-MB-231 breast; SK-MEL-2 melanoma; RPMI-8226 leukemia; KM12 colon; DU-145 prostate; M14 melanoma; OVCAR-3 ovarian; 786-0 renal; MDA-N; HCT-15 colon; LOX IMVI melanoma; TK-10 renal; EKVX NSCLC; A549 NSCLC; NCI/ADR-RES ovarian; CAKI-1 renal.
What all share (test): NCI anticancer screen, dose series, 48 h

Where “and” joins values, the source holds several entries; their conditions need not be identical. Identical values can stand only once.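 Cultured in 96-well plates, cells were exposed to test compound for 48 hours across five concentrations. TGI: total growth inhibition.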

`CCC1(O)CC(OC2CC(N(C)C)C(OC3CC(O)C(OC4OC(C)C(=O)C=C4N)C(C)O3)C(C)O2)c2c(O)c3c(c(O)c2C1C(=O)OC)C(=O)c1cccc(O)c1C3=O` (configuration not stated): the TGI in the experiment on MALME-3M melanoma was 0.0947 µM; in the experiment with HCT-116 colon it was over 100 µM; in the experiment with MDA-MB-231 breast it was 0.296 µM; in the experiment on SK-MEL-2 melanoma it was 0.0272 µM; in the experiment on RPMI-8226 leukemia it was 0.0858 µM; with KM12 colon, 0.2 µM. For the same compound, the TGI in the experiment with DU-145 prostate is 0.0461 µM; in the experiment on M14 melanoma, 0.0268 µM; with OVCAR-3 ovarian it was 0.15 µM; in the experiment on 786-0 renal it was 0.133 µM and 0.147 µM; with MDA-N it was 0.118 µM and 0.012 µM; in the experiment with HCT-15 colon it was 1.17 µM. For the same compound, the TGI with LOX IMVI melanoma is 0.613 µM; in the experiment on TK-10 renal, 0.0778 µM; with EKVX NSCLC, 0.351 µM and 0.0968 µM.
Turning to `CC(C)[Si](OC12CCC(CC1O)CC2C(=O)O)(C(C)C)C(C)C` (configuration not stated), the TGI in the experiment on HCT-116 colon worked out at 23.8 µM; with MDA-MB-231 breast it was 38 µM; with SK-MEL-2 melanoma it was 27.7 µM; in the experiment with RPMI-8226 leukemia it was 58.3 µM; in the experiment on A549 NSCLC, 28.3 µM; in the experiment on KM12 colon it was 26.2 µM. The TGI with DU-145 prostate was 33.7 µM; in the experiment on M14 melanoma, 29.3 µM; in the experiment on OVCAR-3 ovarian, 28 µM; in the experiment on 786-0 renal, 26.8 µM; in the experiment with NCI/ADR-RES ovarian it was 33.6 µM; in the experiment on MDA-N, 39.7 µM. For the same compound, the TGI in the experiment on HCT-15 colon was determined as 24.8 µM; in the experiment with TK-10 renal it was 17.1 µM; in the experiment with CAKI-1 renal, 36.4 µM.
Consider `COC(=O)/C=C\c1ccc2c(c1)CC1(C2)Cc2ccc(/C=C/C(=O)OC)cc2C1` (configuration not stated), for which the TGI with MALME-3M melanoma, with HCT-116 colon, in the experiment on MDA-MB-231 breast, with RPMI-8226 leukemia, with A549 NSCLC and in the experiment with KM12 colon was over 31.6 µM throughout. In addition, the TGI in the experiment with DU-145 prostate is over 100 µM; in the experiment on M14 melanoma it was over 31.6 µM; in the experiment on OVCAR-3 ovarian it was over 31.6 µM; in the experiment on 786-0 renal, over 31.6 µM; in the experiment with NCI/ADR-RES ovarian, over 31.6 µM; in the experiment on MDA-N it was over 31.6 µM. The TGI with HCT-15 colon is over 31.6 µM; in the experiment with LOX IMVI melanoma it was over 31.6 µM; with TK-10 renal, over 31.6 µM; in the experiment with CAKI-1 renal, over 100 µM; in the experiment with EKVX NSCLC, over 31.6 µM.
Regarding `CCc1cc(-c2nsc(=O)o2)c(S(=O)(=O)CC)s1`, the TGI in the experiment with HCT-116 colon, in the experiment on SK-MEL-2 melanoma, with RPMI-8226 leukemia, with A549 NSCLC, with KM12 colon and with DU-145 prostate was over 100 µM each time. The TGI in the experiment with M14 melanoma, with OVCAR-3 ovarian, with 786-0 renal, with NCI/ADR-RES ovarian, in the experiment on MDA-N and with HCT-15 colon was over 100 µM in each case. For the same compound, the TGI in the experiment on LOX IMVI melanoma, with TK-10 renal, with CAKI-1 renal and with EKVX NSCLC was over 100 µM throughout.
As to `CCOC(=O)Cn1c(=O)c2nc(SC)sc2n(-c2ccc(C)cc2)c1=S`, the TGI with MALME-3M melanoma is over 92 µM; in the experiment with HCT-116 colon, over 100 µM; with MDA-MB-231 breast, over 100 µM; in the experiment on SK-MEL-2 melanoma, 96.8 µM; in the experiment on RPMI-8226 leukemia it was over 100 µM; in the experiment on A549 NSCLC it was over 100 µM. In addition, the TGI with KM12 colon is over 100 µM; in the experiment on DU-145 prostate it was over 100 µM; in the experiment on M14 melanoma, over 100 µM; in the experiment with OVCAR-3 ovarian, over 100 µM; in the experiment with 786-0 renal, 49.1 µM; with NCI/ADR-RES ovarian, over 100 µM. Further, the TGI with MDA-N was over 100 µM; with HCT-15 colon, over 100 µM; in the experiment on LOX IMVI melanoma, over 100 µM; with TK-10 renal, over 89.8 µM; in the experiment on CAKI-1 renal it was over 100 µM; in the experiment on EKVX NSCLC, over 100 µM.
Consider `O=C1CN(c2cccc(C(F)(F)F)c2)C(=O)CN1NCNN1CC(=O)N(c2cccc(C(F)(F)F)c2)CC1=O`, for which the TGI in the experiment with HCT-116 colon, in the experiment with MDA-MB-231 breast, with RPMI-8226 leukemia, in the experiment on A549 NSCLC, in the experiment on KM12 colon and in the experiment on M14 melanoma was over 100 µM throughout. Further, the TGI in the experiment on 786-0 renal, in the experiment on NCI/ADR-RES ovarian, in the experiment on MDA-N, with HCT-15 colon, in the experiment with TK-10 renal and in the experiment with EKVX NSCLC was over 100 µM in each case.
As for `CC1(C)C(O)c2ccccc2OC1N1CCN(C2Oc3ccccc3C(O)C2(C)C)CC1` (configuration not stated), the TGI with MALME-3M melanoma, in the experiment on HCT-116 colon, in the experiment on MDA-MB-231 breast, in the experiment on RPMI-8226 leukemia, in the experiment on A549 NSCLC and in the experiment with KM12 colon was over 100 µM throughout. Further, the TGI with DU-145 prostate, with M14 melanoma, in the experiment on OVCAR-3 ovarian, in the experiment on 786-0 renal, with NCI/ADR-RES ovarian and in the experiment on MDA-N was over 100 µM throughout. Further, the TGI in the experiment with HCT-15 colon, in the experiment with LOX IMVI melanoma, in the experiment with CAKI-1 renal and in the experiment with EKVX NSCLC was over 100 µM each time.
Turning to `CC1=CC(C)C(C)N(CCNC(=O)Nc2ccccc2)c2ccccc21` (configuration not stated), the TGI with MALME-3M melanoma was found to be 70.2 µM; with HCT-116 colon it was 35 µM; with MDA-MB-231 breast, 31.1 µM; in the experiment on SK-MEL-2 melanoma, 56.2 µM; in the experiment on RPMI-8226 leukemia it was 51.8 µM; with A549 NSCLC it was 55.7 µM. Further, the TGI in the experiment with KM12 colon was 57.9 µM; in the experiment on DU-145 prostate, over 100 µM; with M14 melanoma, 70 µM; with OVCAR-3 ovarian it was 51.2 µM; in the experiment on 786-0 renal it was over 100 µM; in the experiment on NCI/ADR-RES ovarian, 67.9 µM. The TGI in the experiment with MDA-N was over 100 µM; in the experiment with HCT-15 colon, 72 µM; in the experiment with LOX IMVI melanoma it was 24.3 µM; in the experiment with TK-10 renal, 78.2 µM; in the experiment with CAKI-1 renal, 49.6 µM; with EKVX NSCLC it was 76.3 µM.

The values are drawn from PubChem BioAssay (NCI).
